Measured values published in patent publication US20160081336A1, “MEDIUM WITH A PLANT NON-METABOLIZABLE SUGAR FOR IMPROVING SEED GERMINATION” (WEYERHAEUSER NR COMPANY, priority 2014, published 2016).

How the values were obtained:
[1] = tested on: developing embryo; experiment: Earlier sucrose level study in manufactured seed (FIG. 2, 3); type: in vivo
Description: Higher water potential with relation to lower sucrose levels (solute concentration) was previously purported to increase flooding in gametophyte seed cavities. […] Because of the flooding problem, this study could have selected for those treatments that had the most rapid lid penetration, which would allow embryos to escape the flooded seed environment.

[2] = tested on: embryos; experiment: Lower sucrose concentrations study (15, 25, 35 and 50 g/l; FIG. 4-6); type: in vivo
Description: Organ lengths were also a factor with relation to sucrose concentrations. It was hypothesized that lower sucrose concentrations would affect root lengths and indeed the lower sucrose treatments produced shorter root lengths as compared to the highest group 50 g/l sucrose (FIG. 4). […] After observing sufficient lid penetration, seed were transferred from boxes to sterile sand.

[3] = tested on: embryos dissected from natural loblolly pine seed; experiment: Germination of loblolly pine embryos in manufactured seed, sucrose/isomaltulose gametophyte media (Example 2); type: in vivo; conditions: relative to 20 sucrose
Description: Normal (germination score): Fully extracted out of seed with no malformation (epicotyl optional for fully extracted). OR partial germinant with epicotyl out of cavity and all organs—No Malformations present. Root length of at least 3.0 mm.
Partial Normal (germination score): Not fully emerged, partial germinant with no epicotyl and no malformations. Root length of at least 3.0 mm.
Not normal (germination score): Malformed partial germinants, lacking organs, roots less than 3 mm, any upside down or twisted germinant, or germinated and died as evidenced by lid penetration but no germinant present.
Manufactured seeds were prepared with KE 64 agar nutritive medium, as shown below in Table 1, with sucrose (50 g/L), agar (18 g/L to 26 g/L), nutrient-loaded charcoal (60 g/L) and Pluronic F68 (10 g/L).
The germination rate may be measured and the normalcy of the germinants may also be assessed. A “normal germinant” or “normalcy” denotes the presence of all expected parts of a plant at time of evaluation. In the case of gymnosperms, normalcy is characterized by the radicle having a length greater than 3 mm and no visibly discernable malformations compared to the appearance of embryos germinated from natural seed. “Not normal” means tissue on at least one organ is swollen, and the root and cotyledons are dead. […]

[4] = tested on: alkaline and acid invertases; conditions: cut potato tubers; cited from earlier work
[5] = Study testing increased arginine in gametophyte medium; conditions: in vivo
Description: Aside from the signaling evidence from the literature, the effect of isomaltulose is not thought to be simply from additional osmoticant because higher osmolality medium would drive the water potential gradient further in the direction of the gametophyte, not toward the embryo.

Q: With `OC[C@H]1O[C@@](CO)(O[C@H]2O[C@H](CO)[C@@H](O)[C@H](O)[C@H]2O)[C@@H](O)[C@@H]1O` [sucrose] as the compound, how does the organ lengths ([1]; FIG. 2) read?
A: increased with sucrose at 50 g/l and greater

Q: What about the normalcy ([1]; FIG. 3) of the same compound?
A: decreased with increasing sucrose concentration

Q: What about the root length ([2]; FIG. 4) of the same compound?
A: increased root length with relation to rising sucrose levels

Q: And the normalcy ([2]; after germination in sand, FIG. 6)?
A: normalcy increasing with higher sucrose concentrations

Q: What about the embryo activity ([2]; day 5, FIG. 5) of the same compound?
A: Lower concentrations of sucrose gave the highest yield of embryo activity

Q: Which lateral roots [3] does the source give for `O=C(CO)[C@@H](O)[C@H](O)[C@H](O)CO[C@H]1O[C@H](CO)[C@@H](O)[C@H](O)[C@H]1O` [isomaltulose, 6-O-α-d-glucopyranosyl-D-fructose] here?
A: significantly improved lateral root presence

Q: What about the “isomaltulose concentration at peak acid invertase activity” value [4] of the same compound?
A: 20 mM

Q: What about the “isomaltulose concentration at peak alkaline invertase activity” value [4] of the same compound?
A: 50 mM

Q: Which “performance with increased arginine” value [5] does the source give for `N=C(N)NCCC[C@H](N)C(=O)O` [arginine] here?
A: reduced performance at higher levels
